Earlier results in patent US11306114B2, “Process for separation, isolation and characterization of steviol glycosides” (Heartland Consumer Products, LLC, priority 2014, dated 2022).
Read-outs that look alike come from different tables or passages of the source.

Legend:
[1] = for Sweetness Intensity: relative to an equal weight of sucrose, data from Tanaka, Pure & Appl. Chem.
[2] = subjective relative ranking; data from Tanaka, Pure & Appl. Chem.
[3] = carbonated beverages (Chang et al. 1983) / general statement
[4] = literature statements

| Compound | times sweeter than sucrose ([1]; general statements in text, varies with temperature and viscosity of the carrier medium) | Sweetness Intensity [1] | Sweetness Quality [2] | heat and pH stability [3] | taste attributes ([4]; listed as Rebaudioside A) | taste attributes ([4]; listed as rebaudioside A) | taste attributes [4] |
| --- | --- | --- | --- | --- | --- | --- | --- |
| C=C1C[C@@]23CC[C@H]4[C@@](C)(CCC[C@@]4(C)C(=O)O[C@@H]4O[C@H](CO)[C@@H](O)[C@H](O)[C@H]4O)[C@@H]2CC[C@]1(O[C@@H]1O[C@H](CO)[C@@H](O)[C@H](O)[C@H]1O[C@@H]1O[C@@H](C)[C@H](O)[C@@H](O)[C@H]1O)C3 [dulcoside-A, dulcoside A] | about 30 times | 70 | −2 |  |  |  |  |
| C=C1C[C@@]23CC[C@H]4[C@@](C)(CCC[C@@]4(C)C(=O)O[C@@H]4O[C@H](CO)[C@@H](O)[C@H](O)[C@H]4O)[C@@H]2CC[C@]1(O[C@@H]1O[C@H](CO)[C@@H](O)[C@H](O[C@@H]2O[C@H](CO)[C@@H](O)[C@H](O)[C@H]2O)[C@H]1O[C@@H]1O[C@H](CO)[C@@H](O)[C@H](O)[C@H]1O)C3 [rebaudioside-A, rebaudioside A] |  | 250 | 2 | heat and pH stability | the least astringent, the least bitter, and the least persistent aftertaste | metallic and bitter notes |  |
| C=C1C[C@@]23CC[C@H]4[C@@](C)(CCC[C@@]4(C)C(=O)O[C@@H]4O[C@H](CO)[C@@H](O)[C@H](O)[C@H]4O[C@@H]4O[C@H](CO)[C@@H](O)[C@H](O)[C@H]4O)[C@@H]2CC[C@]1(O[C@@H]1O[C@H](CO)[C@@H](O)[C@H](O[C@@H]2O[C@H](CO)[C@@H](O)[C@H](O)[C@H]2O)[C@H]1O[C@@H]1O[C@H](CO)[C@@H](O)[C@H](O)[C@H]1O)C3 [rebaudioside-D, rebaudioside D] |  | 300 | 3 |  |  |  |  |
| C=C1C[C@@]23CC[C@H]4[C@@](C)(CCC[C@@]4(C)C(=O)O[C@@H]4O[C@H](CO)[C@@H](O)[C@H](O)[C@H]4O[C@@H]4O[C@H](CO)[C@@H](O)[C@H](O)[C@H]4O)[C@@H]2CC[C@]1(O[C@@H]1O[C@H](CO)[C@@H](O)[C@H](O)[C@H]1O[C@@H]1O[C@H](CO)[C@@H](O)[C@H](O)[C@H]1O)C3 [rebaudioside-E, rebaudioside E] |  | 200 | 1 |  |  |  |  |
| C=C1C[C@@]23CC[C@H]4[C@@](C)(CCC[C@@]4(C)C(=O)O[C@@H]4O[C@H](CO)[C@@H](O)[C@H](O)[C@H]4O)[C@@H]2CC[C@]1(O[C@@H]1O[C@H](CO)[C@@H](O)[C@H](O)[C@H]1O)C3 [rubusoside] |  | 115 | −2 |  |  |  |  |
| C=C1C[C@@]23CC[C@H]4[C@@](C)(CCC[C@@]4(C)C(=O)O)[C@@H]2CC[C@]1(O[C@@H]1O[C@H](CO)[C@@H](O)[C@H](O)[C@H]1O[C@@H]1O[C@H](CO)[C@@H](O)[C@H](O)[C@H]1O)C3 [steviolbioside] |  | 40 | −3 |  |  |  |  |
| C=C1C[C@@]23CC[C@H]4[C@@](C)(CCC[C@@]4(C)C(=O)O)[C@@H]2CC[C@]1(O[C@@H]1O[C@H](CO)[C@@H](O)[C@H](O)[C@H]1O)C3 [steviolmonoside] |  | 40 | −3 |  |  |  |  |
| C=C1C[C@@]23CC[C@H]4[C@@](C)(CCC[C@@]4(C)C(=O)O[C@@H]4O[C@H](CO)[C@@H](O)[C@H](O)[C@H]4O)[C@@H]2CC[C@]1(O[C@@H]1O[C@H](CO)[C@@H](O)[C@H](O)[C@H]1O[C@@H]1O[C@H](CO)[C@@H](O)[C@H](O)[C@H]1O)C3 [stevioside, 13-[(2-O-β-D-glucopyranosyl-α-D-glucopyranosyl)oxy]-kaur-16-en-18-oic acid β-D-glucopyranosyl ester] |  | 145 | 0 | heat and pH stability |  |  | metallic and bitter notes |
| rebaudioside B |  | 300 | 3 |  |  |  |  |
| rebaudioside C [rebaudioside-C] |  | 200 | −1 |  |  |  |  |
